Measurements published in patent publication US20250205265A1, “ASPERULOSIDE AS AN AGENT FOR IMPROVING VASCULAR AND METABOLIC FUNCTION IN OBESITY: ROLE OF NRF2 ACTIVATION” (The Chinese University of Hong Kong, priority 2023, published 2025).
Entries after “also recorded” stand apart in the source; their conditions may differ.

Assays:
Nrf2 [1] = assay: Nrf2 nuclear translocation in palmitic acid-treated HepG2 cells; assay type: cell-based
Method: (§1) After induction of obesity in C57BL/6 male mice fed with the high-fat diet for twelve weeks, they were treated daily with ASP (50 mg/kg) via oral gavage for seven weeks in vivo study. C57BL/6 mice aortae were used for ex vivo studies. Endothelial cells, HepG2 and primary adipocytes were used for in vitro studies. Vascular function was determined by wire myograph. H&E staining was employed for histological examination. Oil Red O staining was used to determine lipid droplets in tissues and cells. DHE and MitoSOX staining were used to detect ROS levels. QPCR, aortic en-face immunofluorescence staining, and Western blotting were used to analyze mRNA and protein expressions. ARE binding activity was determined by Dual luciferase reporter assay. Small interfering (si)RNA of Nrf2 and HO-1, inhibitors of Nrf2 (ML385, Cat. No.: HY-100523) and HO-1 (OB-24, HY-118487) were used to elucidate the mechanistic pathway of ASP's action.

ICAM-1 = assay: Real-time PCR of ICAM-1 in aortas of obese mice; assay type: in vivo
Method: (§2) After induction of obesity in C57BL/6 male mice fed with high fat diet for twelve weeks, they were treated daily with ASP (50 mg/kg) via oral gavage for seven weeks in vivo study. C57BL/6 mice aortae were used for ex vivo study and endothelial cells were used for in vitro study. Vascular function was determined by wire myograph. DHE and MitoSOX staining were used to detect ROS levels. QPCR, aortic en-face immunofluorescence staining, and Western blotting were used to analyze mRNA and protein expressions. Small interfering (si)RNA of Nrf2 and HO-1, inhibitors of Nrf2 (ML385, Cat. No.: HY-100523) and HO-1 (OB-24, HY-118487) were used to elucidate the mechanistic pathway of ASP's action.
as §1, with “QPCR, aortic en-face immunofluorescence staining, and Western blotting were used to analyze mRNA and protein expressions.” left out, “Small interfering (si)RNA of Nrf2 and HO-1, inhibitors of Nrf2 (ML385, Cat. No.: HY-100523) and HO-1 (OB-24, HY-118487) were used to elucidate the mechanistic pathway of ASP's action.” left out

[2] = test system: adipose tissues of obese mice; assay: Real-time PCR of adipose tissues of obese mice; assay type: in vivo
Method: as §1

Nrf2 [3] = assay: Nrf2 nuclear translocation and protein level in obese mice livers; assay type: in vivo
Method: as §1

HepG2 cells = assay: Oil Red O staining of PA-treated HepG2 cells; assay type: cell-based; details: Nrf2-inhibited HepG2 cells
Method: as §1

HO-1 [4] = assay: HO-1 expression in endothelial cells (western blotting, real-time PCR); assay type: cell-based
Method: as §2, §1

[5] = test system: high-fat diet (HFD)-fed mice; assay: Vascular function by wire myograph, aortas of obese mice; assay type: in vivo; details: ASP 50 mg/kg oral gavage daily for seven weeks
Method: as §2
as §1, with “QPCR, aortic en-face immunofluorescence staining, and Western blotting were used to analyze mRNA and protein expressions.” left out, “Small interfering (si)RNA of Nrf2 and HO-1, inhibitors of Nrf2 (ML385, Cat. No.: HY-100523) and HO-1 (OB-24, HY-118487) were used to elucidate the mechanistic pathway of ASP's action.” left out

[6] = test system: Cpt1α, Cpt1β, mitochondrial complex, Pgc1α; assay: Real-time PCR of mitochondrial genes in obese mice livers; assay type: in vivo
Method: as §1

VCAM-1 = assay: Real-time PCR of VCAM-1 in aortas of obese mice; assay type: in vivo
Method: as §2
as §1, with “QPCR, aortic en-face immunofluorescence staining, and Western blotting were used to analyze mRNA and protein expressions.” left out, “Small interfering (si)RNA of Nrf2 and HO-1, inhibitors of Nrf2 (ML385, Cat. No.: HY-100523) and HO-1 (OB-24, HY-118487) were used to elucidate the mechanistic pathway of ASP's action.” left out

HO-1 [7] = assay: Real-time PCR of HO-1 in obese mice aortas; assay type: in vivo
Method: as §2
as §1, with “QPCR, aortic en-face immunofluorescence staining, and Western blotting were used to analyze mRNA and protein expressions.” left out, “Small interfering (si)RNA of Nrf2 and HO-1, inhibitors of Nrf2 (ML385, Cat. No.: HY-100523) and HO-1 (OB-24, HY-118487) were used to elucidate the mechanistic pathway of ASP's action.” left out

[8] = test system: Ho-1, Sirt1, Sirt3, Sirt6 and Sod2; assay: Real-time PCR of Nrf2 downstream genes in obese mice livers; assay type: in vivo
Method: as §1

[9] = aortas of obese mice, real-time PCR
[10] = obese mice aortae, ASP 50 mg/kg oral gavage daily for seven weeks
[11] = perirenal adipose tissues in obese mice
[12] = visceral adipose tissues in obese mice
[13] = endothelial cells under basal conditions

Asperuloside
Nrf2 nuclear translocation (immunofluorescence) (Nrf2 [1]): stimulates Nrf2 nuclear translocation in palmitic acid-treated HepG2 cells | ICAM-1 mRNA expression (ICAM-1; [9]): decreases elevated expression of VCAM-1 and ICAM-1 mRNA | reduction of ICAM-1 expression (ICAM-1; [10]): about 2 fold | Cd36 upregulation ([2]; perirenal adipose tissues): inhibited Cd36 upregulation | Acox1 expression [2, 11]: increased | Nprc expression [2, 11]: downregulates Nprc expression | mRNA expression levels of Srebp1 and Acc2 [2, 11]: decreases mRNA expression levels of Srebp1 (FIG. 15A) and Acc2 | expression levels of Il-6 and Il-1β ([2]; perirenal adipose tissues of obese mice): reverses enhanced expression levels of Il-6 (FIG. 16A) and Il-1β | Cd36 upregulation ([2]; subcutaneous adipose tissues): inhibited Cd36 upregulation | Hsl expression ([2]; subcutaneous adipose tissues in obese mice): upregulates Hsl expression | expression of F4/80 ([2]; subcutaneous adipose tissues of obese mice): reverses the elevated expression of F4/80 | Nprc expression [2, 12]: decreased Nprc expression | Tnfα expression [2, 12]: decreases Tnfα expression | upregulation of Cd11c, Cd11b, and F4/80 ([2]; visceral adipose tissues of obese mice): suppresses the upregulation of Cd11c (FIG. 20A), Cd11b (FIG. 20B), and F4/80 | Nrf2 nuclear translocation (immunofluorescence) (Nrf2 [3]; obese mice livers): stimulates Nrf2 nuclear translocation in obese mice livers | Nrf2 protein level (western blot) (Nrf2 [3]; obese mice livers): increased | increase of protein level of Nrf2 in the liver (Nrf2 [3]; worded as embodiment, cf. FIG. 13B): about 3 fold | PA-induced lipid accumulation (Oil Red O) (HepG2 cells): fails to alleviate PA-induced lipid accumulation | HO-1 mRNA (HO-1 [4]; IL-1β, ML385-treated cells): fails to restore IL-1β-mediated downregulation of HO-1 protein (FIG. 4B) and mRNA | HO-1 protein (HO-1 [4]; IL-1β, ML385-treated cells): fails to restore IL-1β-mediated downregulation of HO-1 protein | HO-1 upregulation (western blotting) (HO-1 [4]; Nrf2-silenced cells): ASP-induced upregulation of HO-1 is eliminated; also recorded: Nrf2 knockdown attenuated HO-1 upregulation by ASP | HO-1 expression (western blotting) (HO-1 [4]; [13]): dose-dependently upregulated HO-1 expression | HO-1 mRNA (real-time PCR) (HO-1 [4]; [13]): dose-dependently increases HO-1 mRNA | acetylcholine-induced endothelium-dependent relaxations (EDRs) [5]: prevents HFD-induced impairment of EDRs; also recorded: significantly reversed the impairments of endothelium-dependent relaxations; also recorded: significantly improved endothelial-dependent relaxations | endothelium-independent relaxations in response to sodium nitroprusside (SNP) [5]: remain similar among different groups | mRNA expressions of Cpt1α, Cpt1β, mitochondrial complex, and Pgc1α [6]: reverses these impairments | VCAM-1 mRNA expression (VCAM-1; [9]): decreases elevated expression of VCAM-1 and ICAM-1 mRNA | reduction of VCAM-1 expression (VCAM-1; [10]): about 2 fold | increase of HO-1 expression (HO-1 [7]; [10]): about 1.5 fold | HO-1 mRNA expression level (HO-1 [7]; obese mice aortas, real-time PCR): increases mRNA expression level of Nrf2 (FIG. 1G) and HO-1 | gene expressions of Ho-1, Sirt1, Sirt3, Sirt6 and Sod2 ([8]; obese mice livers): upregulates gene expressions of Ho-1, Sirt1, Sirt3, Sirt6 and Sod2 | increase of HO-1 mRNA expression in the liver ([8]; worded as embodiment, cf. FIG. 13C): about 2.5 fold
